Key:
bacteria on the skin [1] = assay: imprinting method on skin of volunteers, gel, cream and powder preparations; type: in vivo, human; conditions: above 5 mM taurine bromamine; for example Staphylococcus epidermides
Experimental: Further studies of the antibacterial activity of taurine bromamine were conducted using a gel, a cream and a powder. In these tests, applications with a semisolid consistency and plastic features were made, called hereinafter, pharmaceutical or cosmetic preparations or compositions, particularly a taurine bromamine solution in an ethyl-cellulose gel with pH 5-pH 7, a cetomacrogol cream with pH 5-pH 7 and a powder suspension in a taurine bromamine solution.
The powder suspension in taurine bromamine solution was prepared on a base of liquid powder changing the proportions of the components by weight. The suspension consisted of, by weight: 14.0-60.0% of 10 mM Taurine bromamine solution, 10.0-24.0% of talc, 14.0-40.0% of glycerol, 5.0-30.0% of distilled water and 0.5-2.0% of menthol. The constituents of the suspension were stirred thoroughly until an homogenous dispersion of the solid phase was obtained. […]
The preparations were left on the skin area for 30 minutes and then the plates were pressed down so that the site exposed to the activity of the various substances was imprinted centrally on the plate. […] Wherever it was possible, all cultivated colonies of relatively aerobic bacteria and anaerobic bacteria were counted, giving their occurrence per 1 cm^2 of the skin. […]

[2] = test system: Staphylococcus epidermidis; assay: microbicidal activity of TauBr solution, incubation with bacteria then colony count; type: cell-based; conditions: 0.5 h, 30 minutes incubation at room temperature, range tested 1-1000 μM, read-out: inhibitory concentration (MIC)
Experimental: (§1) For research purposes, two bacterial strains commonly found on the human skin were chosen: Propionibacterium acnes (causing acne) and Staphylococcus epidermides (being a part of physiological flora of the skin). Selected microorganisms were lyophilized and kept at room temperature. To prepare strain cultures for immune research the lyophilisate was dissolved in 0.5 ml of 0.9% NaCl solution. The mixture was stirred and seeded on a growth medium. Incubation was conducted in anaerobic conditions at 37° C. for 48-72 hrs. A suspension of bacteria at a concentration of 5×10^9 CFU/ml was then prepared.
(§2) In order to assess the microbicidal activity of the TauBr solution, the Proponibacterium acnes and the Staphylococcus epidermides bacteria were incubated in closed tubes with TauBr solution. The range of concentrations tested was 1-1000 μM. The incubation was conducted at room temperature for 30 minutes. When this process was completed, bacteria were seeded onto a growth medium. After an appropriate period of time the number of developed colonies were counted. Next, estimation of the susceptibility of the Proponibacterium acnes and Staphylococcus epidermides bacteria to the agent tested [TauBr] was determined.

Propionibacterium acnes = assay: as above; type: cell-based; conditions: Cutibacterium acnes, 0.5 h, 30 minutes incubation at room temperature, range tested 1-1000 μM, read-out: inhibitory concentration (MIC)
Experimental: as §1, §2

bacteria tested = assay: bactericidal activity of TauBr compared with TauCl at pH above 7; type: cell-based
bacteria on the skin [3] = assay: imprinting method with Rodac plates on dorsal skin of volunteers, solutions on gauze pads; type: in vivo, human; conditions: 30 minutes
Excerpt: In order to conduct further tests to ascertain the antibacterial activity of the formulation containing taurine bromamine and prepared by the method described above, the imprinting method was chosen with use of Rodac plates with an area of 25 cm^2. For the purposes of study a Scheadler Agar Base medium produced by the firm Dico, catalogue number 212189, was used with addition of 5% ram blood. The medium was poured steadily onto the Rodac plates in aseptic conditions until a convex meniscus appeared. Before being applied, the medium was kept in enclosed conditions within a fridge at a temperature of ca. +4° C. and was used in a time not exceeding 7 days from the date of its preparation.
Tests for the antibacterial activity of taurine bromamine were conducted by performing 5 imprints of the dorsal skin on time at each of the patients examined. The skin area, on which the tests were to be performed, was determined in advance and marked with the numbers 1-5. […]
At the site marked 1—a gauze pad saturated with 0.9% inj. solution of NaCl (Polfa Lublin), which was a control substance without antibacterial activity was applied to the skin. […] Wherever possible, all the cultivated colonies of relatively aerobic and anaerobic bacteria were counted, to provide a figure for the concentration per cm^2 of the skin. […]

O=S(=O)(O)CCNBr [TauBr, N-bromo taurine]
effect on bacterial flora of normal skin (bacteria on the skin [1]): all the bacterial flora is destroyed | MIC [2]: > 125 µM | MIC (Propionibacterium acnes): < 32 µM | selective bactericidal properties (variable susceptibility of strains) (bacteria tested): Variable susceptibility of the strains | bactericidal activity relative to TauCl (bacteria tested; especially at pH above 7): much stronger than TauCl | bacteria destroyed (bacteria tested; pH above 7): 99% | bacterial concentration on skin after treatment (bacteria on the skin [3]; 5 mM solution in buffer pH 7, decrease from uncountable level of ca 10^4 CFU/cm^2): 10^1-10^2 CFU/cm^2 | number of bacteria on the skin area (bacteria on the skin [3]; 4-7 mM solution in buffer pH 5-pH 7, all patients): considerable diminution

O=S(=O)(O)CCNCl [TauCl, N-chloro taurine, reference compound]
selective bactericidal properties (variable susceptibility of strains) (bacteria tested): no such selective bactericidal properties | bactericidal properties (bacteria tested; pH above 7, subcytotoxic concentrations for mammalian cells): no bactericidal properties
